In PubChem BioAssay AID248 (DTP/NCI, 2004):
“And” between values parts separate entries of the source, which are not always exact repeats. Equal values may be shown once. Inconclusive results and toxic doses are left out. Bridge positions count the residues as written; N and C are the ends. Peptide text beside a SMILES is read from it. I, II: the chains in the order shown.

System: L1210 leukemia ip in BDF1 mice, survival T/C
Test: NCI In Vivo Anticancer Drug Screen. Data for tumor model L1210 Leukemia (intraperitoneal) in B6D2F1 (BDF1) mice
Settings: endpoint: mean survival time, higher = longer survival
Summary of the method: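 Survival endpoint. Drug-treated group vs vehicle group, expressed as T divided by C. Tumor passaged by transplantation.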

[1] = dose: 25.0 mg/kg/injection, schedule: Q01DX009 (ip), vehicle: Klucel (hydroxypropylcellulose) (HPC)
[2] = dose: 50.0 mg/kg/injection, schedule: Q01DX009 (ip), vehicle: Klucel (hydroxypropylcellulose) (HPC)
[3] = dose: 100.0 mg/kg/injection, schedule: Q01DX009 (ip), vehicle: Klucel (hydroxypropylcellulose) (HPC)
[4] = dose: 100.0 mg/kg/injection, schedule: Q04DX002 (ip), vehicle: Klucel (hydroxypropylcellulose) (HPC)
[5] = dose: 200.0 mg/kg/injection, schedule: Q04DX002 (ip), vehicle: Klucel (hydroxypropylcellulose) (HPC)
[6] = dose: 75.0 mg/kg/injection, schedule: Q01DX001 (ip), vehicle: saline
[7] = dose: 100.0 mg/kg/injection, schedule: Q01DX009 (ip), vehicle: saline
[8] = dose: 100.0 mg/kg/injection, schedule: Q04DX003 (ip), vehicle: saline
[9] = dose: 200.0 mg/kg/injection, schedule: Q01DX009 (ip), vehicle: saline
[10] = dose: 200.0 mg/kg/injection, schedule: Q04DX003 (ip), vehicle: saline
[11] = dose: 400.0 mg/kg/injection, schedule: Q01DX009 (ip), vehicle: saline
[12] = dose: 400.0 mg/kg/injection, schedule: Q04DX003 (ip), vehicle: saline
[13] = dose: 100.0 mg/kg/injection, schedule: Q04DX003 (ip), vehicle: Klucel (hydroxypropylcellulose) (HPC)
[14] = dose: 400.0 mg/kg/injection, schedule: Q04DX002 (ip), vehicle: Klucel (hydroxypropylcellulose) (HPC)
[15] = dose: 10.0 mg/kg/injection, schedule: Q01DX009 (ip), vehicle: saline
[16] = dose: 20.0 mg/kg/injection, schedule: Q01DX009 (ip), vehicle: saline
[17] = dose: 200.0 mg/kg/injection, schedule: Q04DX003 (ip), vehicle: Klucel (hydroxypropylcellulose) (HPC)
[18] = dose: 400.0 mg/kg/injection, schedule: Q04DX003 (ip), vehicle: Klucel (hydroxypropylcellulose) (HPC)
[19] = dose: 50.0 mg/kg/injection, schedule: Q04DX003 (ip), vehicle: saline with Tween-80
[20] = dose: 100.0 mg/kg/injection, schedule: Q04DX003 (ip), vehicle: saline with Tween-80
[21] = dose: 200.0 mg/kg/injection, schedule: Q04DX003 (ip), vehicle: saline with Tween-80

## CC(=O)CC(=O)C(F)(F)F.CC(=O)CC(=O)C(F)(F)F.[Mn]
[1]
  T/C: 106 % of control
dose: 50.0 mg/kg/injection, schedule: Q01DX005 (ip), vehicle: Klucel (hydroxypropylcellulose) (HPC)
  T/C: 97 % of control
[2]
  T/C: 106 % of control
dose: 100.0 mg/kg/injection, schedule: Q01DX005 (ip), vehicle: Klucel (hydroxypropylcellulose) (HPC)
  T/C: 93 % of control
[3]
  T/C: 106 % of control
[4]
  T/C: 104 % of control
[5]
  T/C: 96 % of control

## CC(C)N(CCSc1ncnc2nc[nH]c12)C(C)C
[6]
  T/C: 96 % of control

## CCOC(=O)CCN1CCCC1
[7]
  T/C: 110 % of control
[8]
  T/C: 94 % of control
[9]
  T/C: 106 % of control
[10]
  T/C: 103 % of control
[11]
  T/C: 105 % of control
[12]
  T/C: 103 % of control

## Nc1nc(CCl)cs1
dose: 25.0 mg/kg/injection, schedule: Q04DX003 (ip), vehicle: Klucel (hydroxypropylcellulose) (HPC)
  T/C: 103 % of control
dose: 50.0 mg/kg/injection, schedule: Q04DX003 (ip), vehicle: Klucel (hydroxypropylcellulose) (HPC)
  T/C: 95 % of control
[13]
  T/C: 98 % of control and 100 % of control

## COc1cc(C=Nc2ccc3c(c2)nc(C)n3C)ccc1N(CCCl)CCCl
[4]
  T/C: 165 % of control
[5]
  T/C: 120 % of control
[14]
  T/C: 89 % of control

## CCCCCCCCC(=O)CCCC
[7]
  T/C: 103 % of control
[9]
  T/C: 100 % of control
[11]
  T/C: 100 % of control

## CC(CC(C#CC(CC(C)CC(C)(C)C)N(C)C)N(C)C)CC(C)(C)C (configuration not stated)
[3]
  T/C: 96 % of control
[4]
  T/C: 111 % of control
dose: 200.0 mg/kg/injection, schedule: Q01DX009 (ip), vehicle: Klucel (hydroxypropylcellulose) (HPC)
  T/C: 93 % of control
[5]
  T/C: 93 % of control
[14]
  T/C: 90 % of control

## Clc1ccc(/C=N/c2snc3ccccc23)c(Cl)c1
[4]
  T/C: 95 % of control
[5]
  T/C: 88 % of control
[14]
  T/C: 92 % of control

## O=C(O)CCC(=O)O
[15]
  T/C: 103 % of control and 101 % of control
[16]
  T/C: 100 % of control and 103 % of control
dose: 31.25 mg/kg/injection, schedule: Q01DX015 (ip), vehicle: water
  T/C: 96 % of control
dose: 40.0 mg/kg/injection, schedule: Q01DX009 (ip), vehicle: saline
  T/C: 97 % of control
dose: 62.5 mg/kg/injection, schedule: Q01DX015 (ip), vehicle: water
  T/C: 89 % of control
dose: 62.5 mg/kg/injection, schedule: Q01DX Z (ip), vehicle: water
  T/C: 95 % of control and 91 % of control
dose: 80.0 mg/kg/injection, schedule: Q01DX009 (ip), vehicle: saline
  T/C: 97 % of control and 99 % of control
dose: 100.0 mg/kg/injection, schedule: Q01DX001 (ip), vehicle: saline
  T/C: 96 % of control
[7]
  T/C: 97 % of control and 102 % of control and 92 % of control
dose: 125.0 mg/kg/injection, schedule: Q01DX015 (ip), vehicle: water
  T/C: 96 % of control and 87 % of control
dose: 125.0 mg/kg/injection, schedule: Q01DX Z (ip), vehicle: water
  T/C: 91 % of control and 88 % of control
dose: 160.0 mg/kg/injection, schedule: Q01DX009 (ip), vehicle: saline
  T/C: 93 % of control and 99 % of control
dose: 200.0 mg/kg/injection, schedule: Q01DX001 (ip), vehicle: saline
  T/C: 102 % of control
[9]
  T/C: 94 % of control and 97 % of control and 105 % of control
dose: 250.0 mg/kg/injection, schedule: Q01DX001 (ip), vehicle: water
  T/C: 100 % of control and 91 % of control
dose: 250.0 mg/kg/injection, schedule: Q01DX015 (ip), vehicle: water
  T/C: 93 % of control
dose: 250.0 mg/kg/injection, schedule: Q01DX Z (ip), vehicle: water
  T/C: 94 % of control and 100 % of control
dose: 400.0 mg/kg/injection, schedule: Q01DX001 (ip), vehicle: saline
  T/C: 107 % of control
[11]
  T/C: 105 % of control
dose: 500.0 mg/kg/injection, schedule: Q01DX001 (ip), vehicle: water
  T/C: 100 % of control
dose: 500.0 mg/kg/injection, schedule: Q01DX Z (ip), vehicle: water
  T/C: 94 % of control and 101 % of control

## Cc1cc(N)no1
[7]
  T/C: 100 % of control
[8]
  T/C: 108 % of control
[9]
  T/C: 104 % of control
[10]
  T/C: 106 % of control
[11]
  T/C: 104 % of control
[12]
  T/C: 108 % of control

## CCOCCO
dose: 5.0 mg/kg/injection, schedule: Q01DX009 (ip), vehicle: saline
  T/C: 97 % of control
[15]
  T/C: 90 % of control
[16]
  T/C: 98 % of control

## CCCCCCCCC(C)C
dose: 100.0 mg/kg/injection, schedule: Q04DX002 (ip), vehicle: saline with Tween-80
  T/C: 100 % of control
dose: 200.0 mg/kg/injection, schedule: Q04DX002 (ip), vehicle: saline with Tween-80
  T/C: 97 % of control

## CCCCCCCCCCCCCCCCCC1=NC(C)(CO)CO1 (configuration not stated)
[13]
  T/C: 102 % of control
[17]
  T/C: 96 % of control
[18]
  T/C: 107 % of control

## NCC1CC2CCC1CC2 (configuration not stated)
dose: 12.5 mg/kg/injection, schedule: Q01DX009 (ip), vehicle: alcohol
  T/C: 106 % of control
dose: 25.0 mg/kg/injection, schedule: Q01DX009 (ip), vehicle: alcohol
  T/C: 101 % of control
dose: 50.0 mg/kg/injection, schedule: Q01DX009 (ip), vehicle: alcohol
  T/C: 106 % of control

## CCOC(=O)C(=N\Nc1ccc(C)cc1C)/C(C)=N\NC(N)=S
[6]
  T/C: 105 % of control

## C1C2OC3CN1CC(O2)O3
dose: 50.0 mg/kg/injection, schedule: Q01DX009 (ip), vehicle: saline
  T/C: 97 % of control
[7]
  T/C: 97 % of control
[9]
  T/C: 94 % of control

## CN(C)c1ccc2cc(S(=O)(=O)O)cc(O)c2c1
dose: 100.0 mg/kg/injection, schedule: Q01DX009 (ip), vehicle: saline with Tween-80
  T/C: 102 % of control
[13]
  T/C: 105 % of control
dose: 200.0 mg/kg/injection, schedule: Q01DX009 (ip), vehicle: saline with Tween-80
  T/C: 96 % of control
[17]
  T/C: 95 % of control
dose: 400.0 mg/kg/injection, schedule: Q01DX009 (ip), vehicle: saline with Tween-80
  T/C: 94 % of control
[18]
  T/C: 93 % of control

## COC1=NCCCCC1
[19]
  T/C: 94 % of control
[20]
  T/C: 99 % of control
[21]
  T/C: 91 % of control

## CCOC(=O)c1ccc(N(CC(N)O)S(=O)(=O)c2ccc(C)cc2)cc1 (configuration not stated)
dose: 12.5 mg/kg/injection, schedule: Q01DX009 (ip), vehicle: saline with Tween-80
  T/C: 96 % of control
dose: 25.0 mg/kg/injection, schedule: Q01DX009 (ip), vehicle: saline with Tween-80
  T/C: 98 % of control
dose: 50.0 mg/kg/injection, schedule: Q01DX009 (ip), vehicle: saline with Tween-80
  T/C: 98 % of control

## O=c1s[se]c2ccccc12
dose: 1.56 mg/kg/injection, schedule: Q01DX009 (ip), vehicle: Klucel (hydroxypropylcellulose) (HPC)
  T/C: 100 % of control
dose: 3.12 mg/kg/injection, schedule: Q01DX009 (ip), vehicle: Klucel (hydroxypropylcellulose) (HPC)
  T/C: 100 % of control
dose: 6.25 mg/kg/injection, schedule: Q01DX009 (ip), vehicle: Klucel (hydroxypropylcellulose) (HPC)
  T/C: 107 % of control
dose: 12.5 mg/kg/injection, schedule: Q01DX009 (ip), vehicle: Klucel (hydroxypropylcellulose) (HPC)
  T/C: 111 % of control
[1]
  T/C: 102 % of control
[2]
  T/C: 91 % of control

## COc1ccc(CCNC(=O)/C=C\C(=O)O)cc1OC
[20]
  T/C: 100 % of control
[21]
  T/C: 98 % of control
dose: 400.0 mg/kg/injection, schedule: Q04DX003 (ip), vehicle: saline with Tween-80
  T/C: 96 % of control

## NCC(=O)NC(CSSCC(NC(=O)CN)C(=O)O)C(=O)O (stereo not drawn) (I: H-Gly-Cys-OH / II: H-Gly-Cys-OH; disulfide I:2-II:2; configuration not given here)
[6]
  T/C: 99 % of control
dose: 150.0 mg/kg/injection, schedule: Q01DX001 (ip), vehicle: saline
  T/C: 102 % of control
dose: 300.0 mg/kg/injection, schedule: Q01DX001 (ip), vehicle: saline
  T/C: 100 % of control

## CC(C)(C)CCSC(=N)N
dose: 25.0 mg/kg/injection, schedule: Q04DX003 (ip), vehicle: saline with Tween-80
  T/C: 98 % of control
[19]
  T/C: 102 % of control
[20]
  T/C: 96 % of control

## CC(=O)N(C1=C(Cl)C(=O)c2ccccc2C1=O)c1ccc(Cl)cc1
dose: 75.0 mg/kg/injection, schedule: Q01DX001 (ip), vehicle: carboxymethylcellulose (CMC)
  T/C: 93 % of control
dose: 150.0 mg/kg/injection, schedule: Q01DX001 (ip), vehicle: carboxymethylcellulose (CMC)
  T/C: 92 % of control
